Experimental data reported in ChEMBL document CHEMBL4257522, “Synthesis and preliminary anti-inflammatory and anti-bacterial evaluation of some diflunisal aza-analogs” (Medchemcomm, 2018).
Activity calls are given as the source filed them. The calls are words filed in the database; no cut-off is given here.

Tests used:
Staphylococcus aureus [1] = experiment: Potentiation of geneticin-induced antibacterial activity against Staphylococcus aureus ATCC 33592 assessed as minimum modulatory concentration up to 32 uM measured after 16 hrs in presence of MIC/4 geneticin; type: functional; details: ATCC 33592, 16 h, read-out: MEC
Streptococcus pyogenes [2] = experiment: Potentiation of geneticin-induced antibacterial activity against Streptococcus pyogenes ATCC 14289 assessed as minimum modulatory concentration up to 32 uM measured after 16 hrs in presence of MIC/4 geneticin; type: functional; details: ATCC 14289, 16 h, read-out: MEC
Staphylococcus aureus [3] = experiment: Potentiation of erythromycin-induced antibacterial activity against Staphylococcus aureus ATCC 33592 assessed as minimum modulatory concentration up to 32 uM measured after 16 hrs in presence of MIC/4 erythromycin; type: functional; details: ATCC 33592, 16 h, read-out: MEC
Staphylococcus aureus [4] = experiment: Potentiation of methicillin-induced antibacterial activity against Staphylococcus aureus ATCC 33592 assessed as minimum modulatory concentration up to 32 uM measured after 16 hrs in presence of MIC/4 methicillin; type: functional; details: ATCC 33592, 16 h, read-out: MEC
Escherichia coli [5] = experiment: Toxicity in Escherichia coli ATCC 43894 up to 32 uM measured after 16 hrs; type: organism-based
Enterococcus faecium [6] = experiment: Toxicity in Enterococcus faecium ATCC 700221 up to 32 uM measured after 16 hrs; type: organism-based; details: in vitro
Klebsiella pneumoniae [7] = experiment: Potentiation of ciprofloxacin-induced antibacterial activity against Klebsiella pneumoniae ATCC 13883 assessed as minimum modulatory concentration up to 32 uM measured after 16 hrs in presence of MIC/4 ciprofloxacin; type: functional; details: ATCC 13883, 16 h, read-out: MEC
Macrophage cell line [8] = experiment: Cytotoxicity against human PBMC-differentiated macrophages treated for 24 hrs followed by compound washout and measured after 48 hrs by MTT assay; type: cell-based
Streptococcus pyogenes [9] = experiment: Toxicity in Streptococcus pyogenes ATCC 14289 up to 32 uM measured after 16 hrs; type: organism-based
Pseudomonas aeruginosa [10] = experiment: Potentiation of erythromycin-induced antibacterial activity against Pseudomonas aeruginosa ATCC BAA-2108 assessed as minimum modulatory concentration up to 32 uM measured after 16 hrs in presence of MIC/4 erythromycin; type: functional; details: ATCC BAA-2108, 16 h, read-out: MEC
Klebsiella pneumoniae [11] = experiment: Potentiation of tetracycline-induced antibacterial activity against Klebsiella pneumoniae ATCC 13883 assessed as minimum modulatory concentration up to 32 uM measured after 16 hrs in presence of MIC/4 tetracycline; type: functional; details: ATCC 13883, 16 h, read-out: MEC
Streptococcus pyogenes [12] = experiment: Potentiation of ciprofloxacin-induced antibacterial activity against Streptococcus pyogenes ATCC 14289 assessed as minimum modulatory concentration up to 32 uM measured after 16 hrs in presence of MIC/4 ciprofloxacin; type: functional; details: ATCC 14289, 16 h, read-out: MEC
Klebsiella pneumoniae [13] = experiment: Potentiation of geneticin-induced antibacterial activity against Klebsiella pneumoniae ATCC 13883 assessed as minimum modulatory concentration up to 32 uM measured after 16 hrs in presence of MIC/4 geneticin; type: functional; details: ATCC 13883, 16 h, read-out: MEC
Staphylococcus aureus [14] = experiment: Potentiation of tetracycline-induced antibacterial activity against Staphylococcus aureus ATCC 33592 assessed as minimum modulatory concentration up to 32 uM measured after 16 hrs in presence of MIC/4 tetracycline; type: functional; details: ATCC 33592, 16 h, read-out: MEC
Escherichia coli [15] = experiment: Potentiation of erythromycin-induced antibacterial activity against Escherichia coli ATCC 43894 assessed as minimum modulatory concentration up to 32 uM measured after 16 hrs in presence of MIC/4 erythromycin; type: functional; details: ATCC 43894, 16 h, read-out: MEC
Pseudomonas aeruginosa [16] = experiment: Potentiation of methicillin-induced antibacterial activity against Pseudomonas aeruginosa ATCC BAA-2108 assessed as minimum modulatory concentration up to 32 uM measured after 16 hrs in presence of MIC/4 methicillin; type: functional; details: ATCC BAA-2108, 16 h, read-out: MEC
Staphylococcus aureus [17] = experiment: Potentiation of ciprofloxacin-induced antibacterial activity against Staphylococcus aureus ATCC 33592 assessed as minimum modulatory concentration up to 32 uM measured after 16 hrs in presence of MIC/4 ciprofloxacin; type: functional; details: ATCC 33592, 16 h, read-out: MEC
Pseudomonas aeruginosa [18] = experiment: Potentiation of tetracycline-induced antibacterial activity against Pseudomonas aeruginosa ATCC BAA-2108 assessed as minimum modulatory concentration up to 32 uM measured after 16 hrs in presence of MIC/4 tetracycline; type: functional; details: ATCC BAA-2108, 16 h, read-out: MEC
Enterococcus faecium [19] = experiment: Potentiation of erythromycin-induced antibacterial activity against Enterococcus faecium ATCC 700221 assessed as minimum modulatory concentration up to 32 uM measured after 16 hrs in presence of MIC/4 erythromycin; type: functional; details: ATCC 700221, 16 h, read-out: MEC
Macrophage cell line [20] = experiment: Induction of prostaglandin production in human PBMC-differentiated macrophages after 24 hrs by ELISA; type: cell-based
Macrophage cell line [21] = experiment: Antiinflammatory activity in human PBMC-differentiated macrophages assessed as inhibition of LPS-induced prostaglandin production at 0.01 to 10 uM measured after 24 hrs by ELISA; type: functional, cell-based
Escherichia coli [22] = experiment: Potentiation of tetracycline-induced antibacterial activity against Escherichia coli ATCC 43894 assessed as minimum modulatory concentration up to 32 uM measured after 16 hrs in presence of MIC/4 tetracycline; type: functional; details: ATCC 43894, 16 h, read-out: MEC
Enterococcus faecium [23] = experiment: Potentiation of methicillin-induced antibacterial activity against Enterococcus faecium ATCC 700221 assessed as minimum modulatory concentration up to 32 uM measured after 16 hrs in presence of MIC/4 methicillin; type: functional; details: ATCC 700221, 16 h, read-out: MEC
Streptococcus pyogenes [24] = experiment: Potentiation of erythromycin-induced antibacterial activity against Streptococcus pyogenes ATCC 14289 assessed as minimum modulatory concentration up to 32 uM measured after 16 hrs in presence of MIC/4 erythromycin; type: functional; details: ATCC 14289, 16 h, read-out: MEC
Pseudomonas aeruginosa [25] = experiment: Potentiation of ciprofloxacin-induced antibacterial activity against Pseudomonas aeruginosa ATCC BAA-2108 assessed as minimum modulatory concentration up to 32 uM measured after 16 hrs in presence of MIC/4 ciprofloxacin; type: functional; details: ATCC BAA-2108, 16 h, read-out: MEC
Streptococcus pyogenes [26] = experiment: Potentiation of methicillin-induced antibacterial activity against Streptococcus pyogenes ATCC 14289 assessed as minimum modulatory concentration up to 32 uM measured after 16 hrs in presence of MIC/4 methicillin; type: functional; details: ATCC 14289, 16 h, read-out: MEC
Enterococcus faecium [27] = experiment: Potentiation of tetracycline-induced antibacterial activity against Enterococcus faecium ATCC 700221 assessed as minimum modulatory concentration up to 32 uM measured after 16 hrs in presence of MIC/4 tetracycline; type: functional; details: ATCC 700221, 16 h, read-out: MEC
Enterococcus faecium [28] = experiment: Potentiation of geneticin-induced antibacterial activity against Enterococcus faecium ATCC 700221 assessed as minimum modulatory concentration up to 32 uM measured after 16 hrs in presence of MIC/4 geneticin; type: functional; details: ATCC 700221, 16 h, read-out: MEC
Escherichia coli [29] = experiment: Potentiation of ciprofloxacin-induced antibacterial activity against Escherichia coli ATCC 43894 assessed as minimum modulatory concentration up to 32 uM measured after 16 hrs in presence of MIC/4 ciprofloxacin; type: functional; details: ATCC 43894, 16 h, read-out: MEC
Klebsiella pneumoniae [30] = experiment: Toxicity in Klebsiella pneumoniae ATCC 13883 up to 32 uM measured after 16 hrs; type: organism-based
Macrophage cell line [31] = experiment: Induction of IL-8 production in human PBMC-differentiated macrophages after 24 hrs by ELISA; type: cell-based
Staphylococcus aureus [32] = experiment: Toxicity in Staphylococcus aureus ATCC 33592 up to 32 uM measured after 16 hrs; type: organism-based
Macrophage cell line [33] = experiment: Induction of IL-1beta production in human PBMC-differentiated macrophages after 24 hrs by ELISA; type: cell-based
Streptococcus pyogenes [34] = experiment: Potentiation of tetracycline-induced antibacterial activity against Streptococcus pyogenes ATCC 14289 assessed as minimum modulatory concentration up to 32 uM measured after 16 hrs in presence of MIC/4 tetracycline; type: functional; details: ATCC 14289, 16 h, read-out: MEC

With `C[n+]1ccc(C(=O)[O-])c(O)c1Cc1ccccc1` the minimal effective concentration (Staphylococcus aureus [1]) was > 32 µM, the minimal effective concentration (Streptococcus pyogenes [2]) was > 32 µM and the minimal effective concentration (Staphylococcus aureus [3]) was > 32 µM. For the same molecule, the minimal effective concentration (Staphylococcus aureus [4]) was > 32 µM, the Activity (Escherichia coli [5]) was “Non-Toxic” and the Activity (Enterococcus faecium [6]) was “Non-Toxic”. The minimal effective concentration (Klebsiella pneumoniae [7]) was > 32 µM, the IC50 (Macrophage cell line [8]) was > 100 µM and the Activity (Streptococcus pyogenes [9]) was “Non-Toxic”. The minimal effective concentration (Pseudomonas aeruginosa [10]) was > 32 µM, the minimal effective concentration (Klebsiella pneumoniae [11]) was > 32 µM and the minimal effective concentration (Streptococcus pyogenes [12]) was > 32 µM. The minimal effective concentration (Klebsiella pneumoniae [13]) was > 32 µM, the minimal effective concentration (Staphylococcus aureus [14]) was > 32 µM and the minimal effective concentration (Escherichia coli [15]) was > 32 µM. For the same molecule, the minimal effective concentration (Pseudomonas aeruginosa [16]) was > 32 µM, the minimal effective concentration (Staphylococcus aureus [17]) was > 32 µM and the minimal effective concentration (Pseudomonas aeruginosa [18]) was > 32 µM. The minimal effective concentration (Enterococcus faecium [19]) was > 32 µM, the Activity (Macrophage cell line [20]) was “Non-Toxic” and the inhibition (Macrophage cell line [21]) was “inactive”. For the same molecule, the minimal effective concentration (Escherichia coli [22]) was > 32 µM, the minimal effective concentration (Enterococcus faecium [23]) was > 32 µM and the minimal effective concentration (Streptococcus pyogenes [24]) was > 32 µM. The minimal effective concentration (Pseudomonas aeruginosa [25]) was > 32 µM, the minimal effective concentration (Streptococcus pyogenes [26]) was > 32 µM and the minimal effective concentration (Enterococcus faecium [27]) was > 32 µM. The minimal effective concentration (Enterococcus faecium [28]) was > 32 µM, the minimal effective concentration (Escherichia coli [29]) was > 32 µM and the Activity (Klebsiella pneumoniae [30]) was “Non-Toxic”. For the same molecule, the Activity (Macrophage cell line [31]) was “Non-Toxic”, the Activity (Staphylococcus aureus [32]) was “Non-Toxic” and the Activity (Macrophage cell line [33]) was “Non-Toxic”. The minimal effective concentration (Streptococcus pyogenes [34]) was > 32 µM.

For `Cc1nc(-c2ccccc2)c(O)cc1C(=O)O`, the minimal effective concentration (Staphylococcus aureus [1]) was 4 µM, the minimal effective concentration (Streptococcus pyogenes [2]) was 2 µM and the minimal effective concentration (Staphylococcus aureus [3]) was 4 µM. The minimal effective concentration (Staphylococcus aureus [4]) was 0.5 µM, the Activity (Escherichia coli [5]) was “Non-Toxic” and the Activity (Enterococcus faecium [6]) was “Non-Toxic”. The minimal effective concentration (Klebsiella pneumoniae [7]) was > 32 µM, the IC50 (Macrophage cell line [8]) was 97.4 µM and the Activity (Streptococcus pyogenes [9]) was “Non-Toxic”. For the same molecule, the minimal effective concentration (Pseudomonas aeruginosa [10]) was 4 µM, the minimal effective concentration (Klebsiella pneumoniae [11]) was > 32 µM and the minimal effective concentration (Streptococcus pyogenes [12]) was > 32 µM. The minimal effective concentration (Klebsiella pneumoniae [13]) was > 32 µM, the minimal effective concentration (Staphylococcus aureus [14]) was 4 µM and the minimal effective concentration (Escherichia coli [15]) was > 32 µM. For the same molecule, the minimal effective concentration (Pseudomonas aeruginosa [16]) was 16 µM, the minimal effective concentration (Staphylococcus aureus [17]) was 16 µM and the minimal effective concentration (Pseudomonas aeruginosa [18]) was > 32 µM. For the same molecule, the minimal effective concentration (Enterococcus faecium [19]) was 4 µM, the Activity (Macrophage cell line [20]) was “Non-Toxic” and the inhibition (Macrophage cell line [21]) was “inactive”. The minimal effective concentration (Escherichia coli [22]) was > 32 µM, the minimal effective concentration (Enterococcus faecium [23]) was 0.5 µM and the minimal effective concentration (Streptococcus pyogenes [24]) was 4 µM. It also gave a minimal effective concentration (Pseudomonas aeruginosa [25]) of 4 µM, a minimal effective concentration (Streptococcus pyogenes [26]) of 4 µM and a minimal effective concentration (Enterococcus faecium [27]) of 1 µM. The minimal effective concentration (Enterococcus faecium [28]) was 8 µM, the minimal effective concentration (Escherichia coli [29]) was > 32 µM and the Activity (Klebsiella pneumoniae [30]) was “Non-Toxic”. The Activity (Macrophage cell line [31]) was “Non-Toxic”, the Activity (Staphylococcus aureus [32]) was “Non-Toxic” and the Activity (Macrophage cell line [33]) was “Non-Toxic”. The minimal effective concentration (Streptococcus pyogenes [34]) was 4 µM.
